3 molecules from PubChem BioAssay (NCI) can be followed below.

Some test systems named below: RPMI-8226 leukemia; IGROV1 ovarian; CCRF-CEM leukemia; SK-OV-3 ovarian; A549 NSCLC; DU-145 prostate; SR leukemia; T-47D breast; TK-10 renal; OVCAR-5 ovarian; HCT-116 colon; NCI-H522 lung; SF-268 CNS; A498 renal; HCT-15 colon.
What all share (experiment): NCI anticancer screen, dose series, 48 h

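Five concentrations, 48 hours, 96-well plates. At the TGI there is no net growth.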

As to `Oc1ccc(Cl)cc1-c1[nH]c(=S)nc(-c2ccccc2)c1Cl`, the TGI in the assay on RPMI-8226 leukemia, in the assay with IGROV1 ovarian, in the assay on CCRF-CEM leukemia, in the assay with SK-OV-3 ovarian, in the assay on A549 NSCLC and in the assay on DU-145 prostate was over 100 µM throughout. Further, the TGI is over 100 µM with SR leukemia; over 100 µM with T-47D breast; over 100 µM in the assay with TK-10 renal; over 100 µM with OVCAR-5 ovarian; over 100 µM in the assay on HCT-116 colon; over 31.6 µM in the assay on NCI-H522 lung. The TGI with SF-268 CNS, in the assay on A498 renal and with HCT-15 colon was over 100 µM each time.
As to `COC(=O)c1ccccc1/C=C1/Cc2cccc(C)c2C1=O`, the TGI in the assay with RPMI-8226 leukemia, with IGROV1 ovarian, in the assay on CCRF-CEM leukemia, in the assay on SK-OV-3 ovarian, in the assay with A549 NSCLC and with DU-145 prostate was over 100 µM throughout. In addition, the TGI in the assay with SR leukemia, with T-47D breast, with TK-10 renal, with OVCAR-5 ovarian, in the assay on HCT-116 colon and in the assay with NCI-H522 lung was over 100 µM each time. Also, the TGI in the assay with SF-268 CNS, in the assay on A498 renal and in the assay on HCT-15 colon was over 100 µM in each case.
For the molecule `COc1ccc(OC)c([N+](=O)[O-])c1-c1nc2sccn2c1/C=N/N=C(N)N`, the TGI in the assay with RPMI-8226 leukemia, with IGROV1 ovarian, with CCRF-CEM leukemia, in the assay with SK-OV-3 ovarian, in the assay on A549 NSCLC and in the assay with DU-145 prostate was over 100 µM in each case. For the same molecule, the TGI with SR leukemia, in the assay on T-47D breast, in the assay with TK-10 renal, in the assay on OVCAR-5 ovarian, with HCT-116 colon and in the assay with NCI-H522 lung was over 100 µM in each case. The TGI in the assay with SF-268 CNS, in the assay with A498 renal and with HCT-15 colon was over 100 µM throughout.
